Source: ChEMBL document CHEMBL5370590, “Densely Functionalized Macrocyclic Sesquiterpene Pyridine Alkaloids from Maytenus austroyunnanensis” (J Nat Prod, 2023)
Active and inactive are the calls of the source. The calls are words filed in the database; no cut-off is given here.

How the values were obtained:
BV-2 [1] = assay: Cytotoxicity against mouse BV-2 cells assessed as reduction in cell viability at 10 uM incubated for 24 hrs by MTT assay; format: toxicity, cell-based; settings: bv-2, 24 h
BV-2 [2] = assay: Inhibition of LPS-induced NO production in mouse BV-2 cells at 10 uM pre-incubated for 2 hrs followed by LPS stimulation and measured after 24 hrs by Griess reagent based method; format: functional, cell-based; settings: time 26.0 hrs
BV-2 [3] = assay: Inhibition of LPS-induced NO production in mouse BV-2 cells assessed as NO production at 20 uM pre-incubated for 2 hrs followed by LPS stimulation and measured after 24 hrs by Griess reagent based method relative to control; format: functional; set-up: scale not given: the % may be the effect or the level left; settings: time 26 hrs
BV-2 [4] = assay: Inhibition of LPS-induced NO production in mouse BV-2 cells assessed as NO production at 10 uM pre-incubated for 2 hrs followed by LPS stimulation and measured after 24 hrs by Griess reagent based method relative to control; format: functional; set-up: scale not given: the % may be the effect or the level left; settings: time 26 hrs

## CC(=O)OC[C@]12[C@H](OC(C)=O)C(=O)[C@@H]3[C@@H](OC(C)=O)[C@@]14O[C@@]3(C)COC(=O)c1cccnc1CC[C@@](C)(OC(C)=O)C(=O)O[C@@H]([C@H](OC(=O)c1ccccc1)[C@@H]2OC(C)=O)[C@]4(C)O
BV-2 [1]
  Activity: Non-Toxic
BV-2 [2]
  inhibition: Active

## C/C=C(\C)C(=O)O[C@H]1[C@@H]2[C@@H](OC(C)=O)[C@@]34O[C@@]2(C)COC(=O)c2cccnc2CC[C@@](C)(OC(C)=O)C(=O)O[C@@H]([C@H](OC(C)=O)[C@H](OC(C)=O)[C@@]3(COC(C)=O)[C@@H]1OC(C)=O)[C@]4(C)O
BV-2 [1]
  Activity: Non-Toxic
BV-2 [2]
  inhibition: Active

## CC(=O)OC[C@]12[C@H](OC(C)=O)[C@@H](OC(C)=O)[C@@H]3[C@@H](OC(C)=O)[C@@]14O[C@@]3(C)COC(=O)c1cccnc1[C@@H](C)[C@H](C)C(=O)O[C@@H]([C@H](OC(C)=O)[C@@H]2OC(C)=O)[C@]4(C)O
BV-2 [1]
  Activity: Non-Toxic
BV-2 [2]
  inhibition: Active

## Oc1ccc(/C=C/c2cc(O)cc(O)c2)cc1 [RESVERATROL]
BV-2 [3]
  Activity: 21.38%

## C/C=C(\C)C(=O)O[C@@H]1[C@H](OC(C)=O)[C@@H]2[C@@H](OC(=O)/C(C)=C/C)[C@@]34O[C@@]2(C)COC(=O)c2cccnc2CC[C@H](C)C(=O)O[C@@H]([C@H](O)[C@H](O)[C@@]13COC(C)=O)[C@]4(C)O
BV-2 [1]
  Activity: Non-Toxic
BV-2 [2]
  inhibition: Active

## C/C=C(\C)C(=O)O[C@@H]1[C@@H]2[C@@H](OC(C)=O)[C@@]34O[C@@]2(C)COC(=O)c2cnccc2CC[C@@](C)(OC(C)=O)C(=O)O[C@@H]([C@H](OC(=O)/C(C)=C/C)[C@H](OC(C)=O)[C@@]3(COC(C)=O)[C@@H]1OC(C)=O)[C@]4(C)O
BV-2 [1]
  Activity: Non-Toxic
BV-2 [2]
  inhibition: Active

## C/C=C(\C)C(=O)O[C@@H]1[C@H](OC(C)=O)[C@@]2(COC(C)=O)[C@H](OC(C)=O)C(=O)[C@@H]3[C@@H](OC(C)=O)[C@@]24O[C@@]3(C)COC(=O)c2cccnc2CC[C@@](C)(OC(C)=O)C(=O)O[C@@H]1[C@]4(C)O
BV-2 [1]
  Activity: Non-Toxic
BV-2 [2]
  inhibition: Active

## CC(=O)OC[C@]12[C@H](OC(C)=O)[C@@H](OC(C)=O)[C@@H]3[C@@H](OC(C)=O)[C@@]14O[C@@]3(C)COC(=O)c1cccnc1[C@@H](C)[C@H](C)C(=O)O[C@@H]([C@H](OC(=O)c1ccc(=O)n(C)c1)[C@@H]2OC(C)=O)[C@]4(C)O
BV-2 [1]
  Activity: Toxic

## C/C=C(\C)C(=O)O[C@@H]1[C@H](OC(C)=O)[C@@]2(COC(C)=O)[C@H](OC(C)=O)C(=O)[C@@H]3[C@@H](O)[C@@]24O[C@@]3(C)COC(=O)c2cccnc2CC[C@@](C)(OC(C)=O)C(=O)O[C@@H]1[C@]4(C)O
BV-2 [1]
  Activity: Non-Toxic
BV-2 [2]
  inhibition: Active

## C/C=C(\C)C(=O)O[C@H]1C[C@@H]2[C@@H](OC(=O)c3ccccc3)[C@@]3(OC2(C)C)[C@@]1(COC(C)=O)[C@@H](OC(C)=O)[C@@H](OC(C)=O)C[C@]3(C)O
BV-2 [1]
  Activity: Non-Toxic
BV-2 [2]
  inhibition: Active
BV-2 [4]
  Activity: 59.61%

## C/C=C(\C)C(=O)O[C@H]1[C@@H]2[C@@H](OC(C)=O)[C@@]34O[C@@]2(C)COC(=O)c2cnccc2CC[C@@](C)(OC(C)=O)C(=O)O[C@@H]([C@H](OC(C)=O)[C@H](OC(C)=O)[C@@]3(COC(C)=O)[C@@H]1OC(C)=O)[C@]4(C)O
BV-2 [1]
  Activity: Non-Toxic
BV-2 [2]
  inhibition: Active

## CC(=O)OC[C@]12[C@H](OC(C)=O)C(=O)[C@@H]3[C@@H](OC(C)=O)[C@@]14O[C@@]3(C)COC(=O)c1cccnc1CC[C@@](C)(OC(C)=O)C(=O)O[C@@H]([C@H](OC(=O)c1cccnc1)[C@@H]2OC(C)=O)[C@]4(C)O
BV-2 [1]
  Activity: Non-Toxic

## CC(=O)O[C@H]1C[C@](C)(O)[C@]23OC(C)(C)[C@H](C[C@H](OC(=O)c4cccnc4)[C@]2(CO)[C@H]1OC(C)=O)[C@H]3OC(C)=O
BV-2 [1]
  Activity: Non-Toxic
